Data reported in the supplement of paper PMC9663587.

How the values were obtained:
[1] = compound: CCN1CCN(Cc2ccc(Nc3ncc(F)c(-c4cc(F)c5nc(C)n(C(C)C)c5c4)n3)nc2)CC1; assay: increase in dead-cell fraction, 72 h; higher = more death;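 further: breast cancer cell lines in 384-well plates, stained with Hoechst plus LIVE/DEAD far red dye and imaged, cells above an LDR intensity threshold counted dead, Hoechst-negative corpses included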
Flavopiridol [2] = compound: T1, CN1CC[C@H](c2c(O)cc(O)c3c(=O)cc(-c4ccccc4Cl)oc23)[C@H](O)C1 [Flavopiridol]; assay: as above
YKL-5-124 = compound: C=CC(=O)Nc1ccc(C(=O)Nc2[nH]nc3c2CN(C(=O)N[C@H](CN(C)C)c2ccccc2)C3(C)C)cc1 [YKL-5-124]; assay: GR value, 72 h; higher = faster growth (1 = untreated, <0 = killing);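 further: breast cancer and non-malignant breast epithelial lines, nine half-log doses, viable cells counted by Hoechst and LIVE/DEAD dye imaging versus time-zero plates and DMSO controls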
BSJ-03-123 = compound: CC(=O)c1c(C)c2cnc(Nc3ccc(N4CCN(CCOCCOCCOCCNC(=O)COc5cccc6c5C(=O)N(C5CCC(=O)NC5=O)C6=O)CC4)cn3)nc2n(C2CCCC2)c1=O [BSJ-03-123]; assay: as above
[3] = compound: CC(=O)c1c(C)c2cnc(Nc3ccc(N4CCNCC4)cn3)nc2n(C2CCCC2)c1=O; assay: as above
[4] = compound: CCN1CCN(Cc2ccc(Nc3ncc(F)c(-c4cc(F)c5nc(C)n(C(C)C)c5c4)n3)nc2)CC1; assay: as above
Neratinib/HKI272 = compound: CCOc1cc2ncc(C#N)c(Nc3ccc(OCc4ccccn4)c(Cl)c3)c2cc1NC(=O)/C=C/CN(C)C [Neratinib/HKI272]; assay: as above
[5] = compound: CCc1cnn2c(NCc3ccc[n+]([O-])c3)cc(N3CCCC[C@H]3CCO)nc12; assay: as above
LEE011/Ribociclib = compound: CN(C)C(=O)c1cc2cnc(Nc3ccc(N4CCNCC4)cn3)nc2n1C1CCCC1 [LEE011/Ribociclib]; assay: as above
THZ531 = compound: CN(C)C/C=C/C(=O)Nc1ccc(C(=O)N2CCC[C@@H](Nc3ncc(Cl)c(-c4c[nH]c5ccccc45)n3)C2)cc1 [THZ531]; assay: as above
THZ1 = compound: CN(C)C/C=C/C(=O)Nc1ccc(C(=O)Nc2cccc(Nc3ncc(Cl)c(-c4c[nH]c5ccccc45)n3)c2)cc1 [THZ1]; assay: as above
Flavopiridol [6] = compound: T1, Flavopiridol; assay: as above

In the case of UACC812, the “increase in dead-cell fraction” value ([1]; 0.001 µM) is reported as -0.0019, the “increase in dead-cell fraction” value ([1]; 0.003162 µM) is reported as 0.0028 and the “increase in dead-cell fraction” value ([1]; 0.01 µM) is reported as 0.0044. For the same cell line, the “increase in dead-cell fraction” value ([1]; 0.03162 µM) was 0.0186, the “increase in dead-cell fraction” value ([1]; 0.1 µM) was 0.0202 and the “increase in dead-cell fraction” value ([1]; 0.3162 µM) was 0.0231. For the same cell line, the “increase in dead-cell fraction” value ([1]; 1 µM) was 0.0272, the “increase in dead-cell fraction” value ([1]; 3.162 µM) was 0.0144 and the “increase in dead-cell fraction” value ([1]; 10 µM) was 0.073. For the same cell line, the “increase in dead-cell fraction” value (Flavopiridol [2]; 0.0001 µM) was 0.0015, the “increase in dead-cell fraction” value (Flavopiridol [2]; 0.0003162 µM) was -0.0016 and the “increase in dead-cell fraction” value (Flavopiridol [2]; 0.001 µM) was 0.0074. For the same cell line, the “increase in dead-cell fraction” value (Flavopiridol [2]; 0.003162 µM) was 0.0022, the “increase in dead-cell fraction” value (Flavopiridol [2]; 0.01 µM) was -0.0031 and the “increase in dead-cell fraction” value (Flavopiridol [2]; 0.03162 µM) was -0.0033. For the same cell line, the “increase in dead-cell fraction” value (Flavopiridol [2]; 0.1 µM) was 0.0023, the “increase in dead-cell fraction” value (Flavopiridol [2]; 0.3162 µM) was 0.0692 and the “increase in dead-cell fraction” value (Flavopiridol [2]; 1 µM) was 0.403. The GR value (YKL-5-124; 0.001 µM) was 0.609 GR, the GR value (YKL-5-124; 0.003162 µM) was 0.318 GR and the GR value (YKL-5-124; 0.01 µM) was 0.142 GR. The GR value (YKL-5-124; 0.03162 µM) was -0.122 GR, the GR value (YKL-5-124; 0.1 µM) was -0.106 GR and the GR value (YKL-5-124; 0.3162 µM) was -0.151 GR. For the same cell line, the GR value (YKL-5-124; 1 µM) was 0.0505 GR, the GR value (YKL-5-124; 3.162 µM) was -0.246 GR and the GR value (YKL-5-124; 10 µM) was -0.423 GR. It also gave a GR value (BSJ-03-123; 0.001 µM) of 0.833 GR, a GR value (BSJ-03-123; 0.003162 µM) of 0.862 GR and a GR value (BSJ-03-123; 0.01 µM) of 0.699 GR. It also gave a GR value (BSJ-03-123; 0.03162 µM) of 0.711 GR, a GR value (BSJ-03-123; 0.1 µM) of 0.74 GR and a GR value (BSJ-03-123; 0.3162 µM) of 0.887 GR. It also gave a GR value (BSJ-03-123; 1 µM) of 0.48 GR, a GR value (BSJ-03-123; 3.162 µM) of 0.408 GR and a GR value (BSJ-03-123; 10 µM) of -0.328 GR. The GR value ([3]; 0.0003162 µM) was 1.11 GR, the GR value ([3]; 0.001 µM) was 0.781 GR and the GR value ([3]; 0.003162 µM) was 0.839 GR. For the same cell line, the GR value ([3]; 0.01 µM) was 0.637 GR, the GR value ([3]; 0.03162 µM) was 0.409 GR and the GR value ([3]; 0.1 µM) was 0.173 GR. For the same cell line, the GR value ([3]; 0.3162 µM) was 0.0192 GR, the GR value ([3]; 1 µM) was -0.127 GR and the GR value ([3]; 3.162 µM) was -0.162 GR. The GR value ([4]; 0.001 µM) was 0.849 GR, the GR value ([4]; 0.003162 µM) was 0.562 GR and the GR value ([4]; 0.01 µM) was 0.349 GR. For the same cell line, the GR value ([4]; 0.03162 µM) was -0.073 GR, the GR value ([4]; 0.1 µM) was -0.212 GR and the GR value ([4]; 0.3162 µM) was -0.252 GR. It also gave a GR value ([4]; 1 µM) of -0.319 GR, a GR value ([4]; 3.162 µM) of -0.407 GR and a GR value ([4]; 10 µM) of -0.565 GR. It also gave a GR value (Neratinib/HKI272; 0.0003162 µM) of 1.02 GR, a GR value (Neratinib/HKI272; 0.001 µM) of 0.785 GR and a GR value (Neratinib/HKI272; 0.003162 µM) of 0.449 GR. It also gave a GR value (Neratinib/HKI272; 0.01 µM) of 0.258 GR, a GR value (Neratinib/HKI272; 0.03162 µM) of -0.145 GR and a GR value (Neratinib/HKI272; 0.1 µM) of -0.384 GR. The GR value (Neratinib/HKI272; 0.3162 µM) was -0.493 GR, the GR value (Neratinib/HKI272; 1 µM) was -0.574 GR and the GR value (Neratinib/HKI272; 3.162 µM) was -0.747 GR. It also gave a GR value ([5]; 0.0001 µM) of 1.17 GR, a GR value ([5]; 0.0003162 µM) of 1.22 GR and a GR value ([5]; 0.001 µM) of 1.63 GR. It also gave a GR value ([5]; 0.003162 µM) of 1.63 GR, a GR value ([5]; 0.01 µM) of 1.28 GR and a GR value ([5]; 0.03162 µM) of -0.347 GR. It also gave a GR value ([5]; 0.1 µM) of -0.932 GR, a GR value ([5]; 0.3162 µM) of -0.948 GR and a GR value ([5]; 1 µM) of -0.949 GR. For the same cell line, the GR value (LEE011/Ribociclib; 0.001 µM) was 0.753 GR, the GR value (LEE011/Ribociclib; 0.003162 µM) was 0.55 GR and the GR value (LEE011/Ribociclib; 0.01 µM) was 0.569 GR. The GR value (LEE011/Ribociclib; 0.03162 µM) was 0.333 GR, the GR value (LEE011/Ribociclib; 0.1 µM) was 0.309 GR and the GR value (LEE011/Ribociclib; 0.3162 µM) was 0.218 GR. The GR value (LEE011/Ribociclib; 1 µM) was 0.148 GR, the GR value (LEE011/Ribociclib; 3.162 µM) was 0.171 GR and the GR value (LEE011/Ribociclib; 10 µM) was 0.0704 GR. For the same cell line, the GR value (THZ531; 0.0001 µM) was 0.819 GR, the GR value (THZ531; 0.0003162 µM) was 1.04 GR and the GR value (THZ531; 0.001 µM) was 0.807 GR. The GR value (THZ531; 0.003162 µM) was 0.754 GR, the GR value (THZ531; 0.01 µM) was 0.851 GR and the GR value (THZ531; 0.03162 µM) was 0.958 GR. For the same cell line, the GR value (THZ531; 0.1 µM) was 0.942 GR, the GR value (THZ531; 0.3162 µM) was 1.17 GR and the GR value (THZ531; 1 µM) was 0.547 GR. The GR value (THZ1; 0.0001 µM) was 1.23 GR, the GR value (THZ1; 0.0003162 µM) was 1.05 GR and the GR value (THZ1; 0.001 µM) was 1.18 GR. The GR value (THZ1; 0.003162 µM) was 0.811 GR, the GR value (THZ1; 0.01 µM) was 1.1 GR and the GR value (THZ1; 0.03162 µM) was 0.842 GR. It also gave a GR value (THZ1; 0.1 µM) of 1.1 GR, a GR value (THZ1; 0.3162 µM) of 1.01 GR and a GR value (THZ1; 1 µM) of -0.293 GR. The GR value (Flavopiridol [6]; 0.0001 µM) was 0.797 GR, the GR value (Flavopiridol [6]; 0.0003162 µM) was 1.15 GR and the GR value (Flavopiridol [6]; 0.001 µM) was 0.734 GR. The GR value (Flavopiridol [6]; 0.003162 µM) was 0.914 GR, the GR value (Flavopiridol [6]; 0.01 µM) was 0.878 GR and the GR value (Flavopiridol [6]; 0.03162 µM) was 0.785 GR. It also gave a GR value (Flavopiridol [6]; 0.1 µM) of 0.457 GR, a GR value (Flavopiridol [6]; 0.3162 µM) of -0.332 GR and a GR value (Flavopiridol [6]; 1 µM) of -0.812 GR.
